Measured values from patent US20260284010A1, “SOLID DISPERSION OF P2X4 INHIBITOR, AND PREPARATION METHOD THEREFOR AND USE THEREOF” (priority 2023, published 2026).
In brackets after ≈: the same amount, converted by molar mass. Where two headings read alike, the source gives them in different places.

Experiments:
[1] = Solubilization test of compound 1 with surfactants in FaSSIF; type: physicochemical; settings: for solubility at 0.5 h / solubility at 1 h / solubility at 2 h / solubility at 4 h: 37° C., read-out: Concentration of API in vehicle
Protocol: 50 mg of compound 1 was weighed into 5 mL of FaSSIF medium containing 5 mg of different surfactants (target concentration of API (compound 1):10 mg/mL). The mixture was shaken at 500 rpm and 37° C. 0.5 mL each of the suspension samples was taken at 0.5 hours, 1 hour, 2 hours, and 4 hours, respectively, centrifuged at 14,000 rpm for 5 minutes, and the supernatant was diluted and analyzed by HPLC.

[2] = Dynamic solubility test (two-step dissolution, SGF then FaSSIF) of solid dispersions; type: physicochemical; settings: 37° C.
Protocol: 20 mg each of the solid dispersion products from formulations 1 to 9 in Example 4 was taken and added with 3 mL of SGF (target concentration of API: […]). The mixture was stirred at 37° C. and 500 rpm for 0.25 hours and 0.5 hours, respectively, followed by sampling. 3 mL of 2× FaSSIF was then added to adjust the solution pH to approximately 6.5. The mixture was stirred for another 0.25 hours, 0.5 hours, 1 hour, and 1.5 hours, respectively, followed by sampling. The collected samples were analyzed by UPLC, and the final solution pH was measured.

[3] = FaSSIF (pH 6.5) with 5 mg Cremophor EL, 50 mg API in 5 mL
[4] = FaSSIF (pH 6.5) with 5 mg Cremophor RH40, 50 mg API in 5 mL
[5] = FaSSIF (pH 6.5) with 5 mg SLS, 50 mg API in 5 mL
[6] = FaSSIF (pH 6.5) with 5 mg Solutol HS15, 50 mg API in 5 mL
[7] = FaSSIF (pH 6.5) with 5 mg VE-TPGS, 50 mg API in 5 mL
[8] = FaSSIF (pH 6.5), no surfactant, 50 mg API in 5 mL
[9] = fassif with poloxamer 188, FaSSIF (pH 6.5) with 5 mg Poloxamer 188, 50 mg API in 5 mL
[10] = fassif with poloxamer 407, FaSSIF (pH 6.5) with 5 mg Poloxamer 407, 50 mg API in 5 mL
[11] = fassif with tween 80, FaSSIF (pH 6.5) with 5 mg Tween 80, 50 mg API in 5 mL

## NS(=O)(=O)c1cc(NC(=O)Cc2ccccc2Cl)cc2nn(C(F)F)cc12 [compound 1]
[1]; [3]
  solubility at 0.5 h: 1570 µg/mL (≈ 3800 µM)
  solubility at 1 h: 1600 µg/mL (≈ 3870 µM)
  solubility at 2 h: 1540 µg/mL (≈ 3710 µM)
  solubility at 4 h: 1510 µg/mL (≈ 3640 µM)
[1]; [4]
  solubility at 0.5 h: 1580 µg/mL (≈ 3820 µM)
  solubility at 1 h: 1600 µg/mL (≈ 3870 µM)
  solubility at 2 h: 1570 µg/mL (≈ 3780 µM)
  solubility at 4 h: 1540 µg/mL (≈ 3710 µM)
[1]; [5]
  solubility at 0.5 h: 614 µg/mL (≈ 1480 µM)
  solubility at 1 h: 622 µg/mL (≈ 1500 µM)
  solubility at 2 h: 639 µg/mL (≈ 1540 µM)
  solubility at 4 h: 652 µg/mL (≈ 1570 µM)
[1]; [6]
  solubility at 0.5 h: 1470 µg/mL (≈ 3530 µM)
  solubility at 1 h: 1500 µg/mL (≈ 3620 µM)
  solubility at 2 h: 1480 µg/mL (≈ 3570 µM)
  solubility at 4 h: 1460 µg/mL (≈ 3510 µM)
[1]; [7]
  solubility at 0.5 h: 2110 µg/mL (≈ 5100 µM)
  solubility at 1 h: 2120 µg/mL (≈ 5120 µM)
  solubility at 2 h: 2090 µg/mL (≈ 5040 µM)
  solubility at 4 h: 2080 µg/mL (≈ 5010 µM)
[1]; [8]
  solubility at 0.5 h: 33.9 µg/mL (≈ 81.7 µM)
  solubility at 1 h: 22.9 µg/mL (≈ 55.2 µM)
  solubility at 2 h: 15.2 µg/mL (≈ 36.6 µM)
  solubility at 4 h: 14.9 µg/mL (≈ 35.9 µM)
[1]; FaSSIF with SLS, Cremophor EL, Cremophor RH40, VE-TPGS, Tween 80, Poloxamer 407, or Solutol HS15, in words
  Solubility of compound 1 with surfactants: significantly improved
[1]; [9]
  solubility at 0.5 h: 116 µg/mL (≈ 279 µM)
  solubility at 1 h: 123 µg/mL (≈ 297 µM)
  solubility at 2 h: 104 µg/mL (≈ 251 µM)
  solubility at 4 h: 93.9 µg/mL (≈ 226 µM)
[1]; [10]
  solubility at 0.5 h: 838 µg/mL (≈ 2020 µM)
  solubility at 1 h: 861 µg/mL (≈ 2070 µM)
  solubility at 2 h: 842 µg/mL (≈ 2030 µM)
  solubility at 4 h: 797 µg/mL (≈ 1920 µM)
[1]; [11]
  solubility at 0.5 h: 899 µg/mL (≈ 2170 µM)
  solubility at 1 h: 893 µg/mL (≈ 2150 µM)
  solubility at 2 h: 888 µg/mL (≈ 2140 µM)
  solubility at 4 h: 887 µg/mL (≈ 2140 µM)
[2]; Step 1 (SGF, pH 1.6), 0.25 h, target API 2 mg/mL
  Solubility of API in vehicle: 33.7 µg/mL
[2]; Step 1 (SGF, pH 1.6), 0.5 h, target API 2 mg/mL
  Solubility of API in vehicle: 65.1 µg/mL
[2]; Step 2 (FaSSIF, pH 6.5), 0.75 h
  Solubility of API in vehicle: 13.7 µg/mL
[2]; Step 2 (FaSSIF, pH 6.5), 1.0 h
  Solubility of API in vehicle: 33.5 µg/mL
[2]; Step 2 (FaSSIF, pH 6.5), 2.0 h
  Solubility of API in vehicle: 18.0 µg/mL
[2]; Step 2 (FaSSIF, pH 6.5), […]
  Solubility of API in vehicle: 15.0 µg/mL
